The source of these data is patent publication US10450335B2, “Antiviral oxime phosphoramide compounds” (Merck Sharp & Dohme Corp., priority 2015, dated 2019).

Series [1] in a line: Prodrug stability assay in bio-relevant media (FaSSIF with Pancreatin, GI tract stability). Conditions: HPLC peak area of prodrug at 5 h / 0 h, 0.5 mg/mL Pancreatin in FaSSIF, 37° C. In kind it is in vitro ADME. The procedure:
Prodrug Stability Assay in Bio-Relevant Media
The following assay was employed to evaluate the stability of the prodrugs in simulated gastrointestinal tract conditions. Preparation of fasted state simulated intestinal fluid (FaSSIF) using Phares SIF Powder was carried out according to protocols from Phare Drug Delivery AG (Baselland, Switzerland). For sample preparation, 10 μL stock solutions (10 mM) of prodrug substance in DMSO was added to 990 μL of 0.5 mg/mL Pancreatin solution (Fisher CAS#8049-47-6) in FaSSIF. Two samples were prepared for each compound. If the sample was a clear solution, it was directly analyzed by HPLC. If the sample was not clear, the sample was […] at 37° C. and observed 5 h later. If the sample was clear, HPLC analysis was directly performed. If the sample was still not clear, the sample was diluted with 100% ACN and assayed by HPLC. All the samples were vortexed for 3 min and observed before injection. For the diluted samples, the area is multiplied by a dilution factor when the data is analyzed. The analysis was carried out with an Agilent 1100 series HPLC with autosampler. The column was a Poroshell 120 EC-C18, 4.6×50 mm, […]. The flow rate was 1.8 mL/min, and the injection volume was 5 or 10 μL. UV detection was in the range 210-400 nm. The mobile phase consisted of solvent A (water plus 10 mM tetrabutylammonium bromide) and solvent B (acetonitrile) with a gradient of: 90% solvent A at 0 min, changing to 95% solvent B over 6 min, maintaining for 1.5 min, then reverting to 90% solvent A over 1.6 min. The HPLC peak area of the prodrug at 5 h was divided by the HPLC peak area of the prodrug at 0 h, to generate the % claimed parent ratio, which is summarized in Table 2 for gastrointestinal (GI) Tract stability.

The test system of series [2] is HIV-1 (H9/IIIB strain). As to the kind of experiment: Viking assay: antiviral potency in a multiple round HIV-1 infection assay in MT4-GFP cells. Type of series: cell-based. Conditions: Human immunodeficiency virus 1, IIIB, MT4-GFP cells infected with HIV-1 H9/IIIB, inhibition of reproductive ratio R0. The procedure: Assessing Antiviral Potency in a Multiple Round HIV-1 Infection Assay (Viking Assay)
The antiviral activity of the tenofovir prodrugs of the Examples herein was assessed in an assay that measures the rate of replication of HIV in cell culture, termed the Viking assay (VIral KINetics in Green cells) and performed as follows. HIV-1 replication was monitored using MT4-gag-GFP clone D3 (hereafter designated MT4-GFP), which are MT-4 cells modified to harbor a GFP reporter gene, the expression of which is dependent on the HIV-1 expressed proteins tat and rev. Productive infection of an MT4-GFP cell with HIV-1 results in GFP expression approximately 24 h post-infection. MT4-GFP cells were maintained at 37° C./5% CO2/90% relative humidity in RPMI 1640 supplemented with 10% fetal bovine serum, 100 U/ml penicillin/streptomycin, and 400 μg/ml G418 to maintain the reporter gene. For infections, MT4-GFP cells were placed in the same medium lacking G418 and infected overnight with HIV-1 (H9/IIIB strain) virus at an approximate multiplicity of infection of 0.01 in the same incubation conditions. Cells were then washed and re-suspended in either RPMI 1640 supplemented with 10% or 50% normal human serum (NHS) at 1.6×10^5 cells/mL (10% NHS or 50% NHS, respectively). Compound plates were prepared by dispensing compounds dissolved in DMSO into wells of 384 well poly-D-lysine-coated plates (0.2 μl/well) using an ECHO acoustic dispenser. Each compound was tested in a 10-point serial 3-fold dilution (typical final concentrations: 8.4 μM-0.42 nM). Controls included no inhibitor (DMSO only) and a combination of three antiviral agents (efavirenz, indinavir, an in-house integrase strand transfer inhibitor at final concentrations of 4 μM each). Cells were added (50 μL/well) to compound plates and the infected cells were maintained at 37° C./5% CO2/90% relative humidity.
Infected cells were quantified at two time points, ˜48 h and ˜72 h post-infection, by counting the number of green cells in each well using an Acumen eX3 scanner. The increase in the number of green cells over ˜24 h period gives the reproductive ratio, R0, which is typically 5-15 and has been shown experimentally to be in logarithmic phase (data not shown). Inhibition of R0 is calculated for each well, and IC50s determined by non-linear 4-parameter curve fitting.

Where [3] appears, read: 10% normal human serum, read-out: Viking, IC50 (10% NHS).
[4] abbreviates: 50% normal human serum, read-out: Viking, IC50 (50% NHS).

Where two headings read alike, the source gives them in different places.

The term IC50 denotes the point on the concentration scale where inhibition reaches its midpoint.

Turning to `CC(C)CC(CC(C)C)=NOP(=O)(CO[C@H](C)Cn1cnc2c(N)ncnc21)NC(C)(C)C(=O)OC(C)C` (single isomer, unassigned) [Example 28], in series [1], the “GI Tract stability” value is given as 93.1%. The IC50 is 0.0007 µM in series [2] (setting [3]) and 0.0038 µM in series [2] (setting [4]).

With `CC(C)=NOP(=O)(CO[C@H](C)Cn1cnc2c(N)ncnc21)NC(C)(C)C(=O)OC(C)C` (stereo partly drawn) [Example 22, isopropyl 2-(((R)-((((R)-1-(6-amino-9H-purin-9-yl)propan-2-yl)oxy)methyl)((propan-2-ylideneamino)oxy)phosphoryl)amino)-2-methylpropanoate; and isopropyl 2-(((S)-((((R)-1-(6-amino-9H-purin-9-yl)propan-2-yl)oxy)methyl)((propan-2-ylideneamino)oxy)phosphonyl)amino)-2-methylpropanoate], in series [1], the “GI Tract stability” value is given as 98.1%.

For the compound `CC(C)OC(=O)[C@H](C)NP(=O)(CO[C@H](C)Cn1cnc2c(N)ncnc21)ON=C1CCCC1` (stereo partly drawn) [Example 13, isopropyl (((R)-(((R)-1-(6-amino-9H-purin-9-yl)propan-2-yl)oxy)methyl)((cyclopentylidene-amino)oxy)phosphoryl)-L-alaninate; and isopropyl (((S)-(((R)-1-(6-amino-9H-purin-9-yl)propan-2-yl)oxy)methyl)((cyclopentylidene-amino)oxy)phosphoryl)-L-alaninate], the “GI Tract stability” value in series [1] came out at 95.7%.

`CC(C)OC(=O)[C@H](C)NP(=O)(CO[C@H](C)Cn1cnc2c(N)ncnc21)ON=C(C1CC1)C1CC1` (stereo partly drawn) [Example 10, isopropyl (((((R)-1-(6-amino-9H-purin-9-yl)propan-2-yl)oxy)methyl)(((dicyclopropylmethyl-ene)amino)oxy)phosphoryl)-L-alaninate]: in series [1], the “GI Tract stability” value worked out at 95.0%. Further, the IC50 is 0.0468 µM in series [2] (setting [3]) and 0.228 µM in series [2] (setting [4]).

Turning to `C/C(=N\OP(=O)(CO[C@H](C)Cn1cnc2c(N)ncnc21)N[C@@H](C)C(=O)OC(C)C)C1CCCC1` (stereo partly drawn) [Example 21, isopropyl (((R)-(((R)-1-(6-amino-9H-purin-9-yl)propan-2-yl)oxy)methyl)((((E)-1-cyclopentylethylidene)amino)oxy)phosphoryl)-L-alaninate; and isopropyl (((S)-(((R)-1-(6-amino-9H-purin-9-yl)propan-2-yl)oxy)methyl)((((E)-1-cyclopentylethylidene)amino)oxy)phosphonyl)-L-alaninate], the “GI Tract stability” value in series [1] worked out at 79.5%.
